Data set [1] has as its target Sodium-dependent serotonin transporter (Rattus norvegicus, UniProt P31652). Briefly: Displacement of [3H]citalopram from SERT in Sprague-Dawley rat whole brain membranes after 1 hr by liquid scintillation spectrometry. It is filed as tissue-based, Membrane. In general terms: In a radioligand displacement assay an active substance lowers the binding of a labelled ligand.

The target in data set [2] is T1, 5-hydroxytryptamine receptor 2C (Homo sapiens, UniProt P28335).
T1 sequence (P28335 whole entry): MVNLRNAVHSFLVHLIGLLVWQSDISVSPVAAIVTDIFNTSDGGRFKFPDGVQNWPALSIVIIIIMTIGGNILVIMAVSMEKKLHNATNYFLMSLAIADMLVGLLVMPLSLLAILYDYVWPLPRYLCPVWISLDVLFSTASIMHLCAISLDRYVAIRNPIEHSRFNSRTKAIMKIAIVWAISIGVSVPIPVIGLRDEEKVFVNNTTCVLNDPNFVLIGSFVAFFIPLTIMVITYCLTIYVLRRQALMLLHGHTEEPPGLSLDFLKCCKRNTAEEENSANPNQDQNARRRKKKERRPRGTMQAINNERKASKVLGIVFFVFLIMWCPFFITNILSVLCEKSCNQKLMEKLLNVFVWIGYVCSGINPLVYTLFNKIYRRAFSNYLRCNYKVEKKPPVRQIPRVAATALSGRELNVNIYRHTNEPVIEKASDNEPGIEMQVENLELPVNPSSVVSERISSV
Briefly: Binding affinity to 5HT2C (unknown origin).

Data set [3] has as its target T2, 5-hydroxytryptamine receptor 2C (Rattus norvegicus, UniProt P08909).
T2 sequence (P08909 whole entry): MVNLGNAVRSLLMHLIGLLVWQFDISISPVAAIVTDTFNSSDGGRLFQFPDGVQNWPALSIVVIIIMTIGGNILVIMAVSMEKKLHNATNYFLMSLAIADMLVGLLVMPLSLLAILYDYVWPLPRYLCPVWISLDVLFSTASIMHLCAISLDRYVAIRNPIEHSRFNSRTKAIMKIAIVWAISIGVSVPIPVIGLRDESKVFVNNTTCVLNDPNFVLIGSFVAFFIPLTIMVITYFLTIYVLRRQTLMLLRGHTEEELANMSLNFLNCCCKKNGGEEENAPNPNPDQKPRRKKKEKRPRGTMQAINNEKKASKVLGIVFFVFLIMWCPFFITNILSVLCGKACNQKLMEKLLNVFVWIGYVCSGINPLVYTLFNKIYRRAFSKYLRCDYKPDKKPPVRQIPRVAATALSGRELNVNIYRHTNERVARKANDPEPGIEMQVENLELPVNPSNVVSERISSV
The data set can be described thus: Displacement of [3H]mesulergine from 5HT2C in Sprague-Dawley rat whole brain membranes after 1 hr by liquid scintillation spectrometry. It is filed as tissue-based, Membrane.

The nature of data set [4]: Intrinsic clearance in mouse liver microsomes at 2.5 uM. It is filed as ADME.
The target in data set [5] is T3, 5-hydroxytryptamine receptor 2A (Homo sapiens, UniProt P28223). Briefly: Binding affinity to 5HT2A (unknown origin).
T3 sequence (P28223 whole entry): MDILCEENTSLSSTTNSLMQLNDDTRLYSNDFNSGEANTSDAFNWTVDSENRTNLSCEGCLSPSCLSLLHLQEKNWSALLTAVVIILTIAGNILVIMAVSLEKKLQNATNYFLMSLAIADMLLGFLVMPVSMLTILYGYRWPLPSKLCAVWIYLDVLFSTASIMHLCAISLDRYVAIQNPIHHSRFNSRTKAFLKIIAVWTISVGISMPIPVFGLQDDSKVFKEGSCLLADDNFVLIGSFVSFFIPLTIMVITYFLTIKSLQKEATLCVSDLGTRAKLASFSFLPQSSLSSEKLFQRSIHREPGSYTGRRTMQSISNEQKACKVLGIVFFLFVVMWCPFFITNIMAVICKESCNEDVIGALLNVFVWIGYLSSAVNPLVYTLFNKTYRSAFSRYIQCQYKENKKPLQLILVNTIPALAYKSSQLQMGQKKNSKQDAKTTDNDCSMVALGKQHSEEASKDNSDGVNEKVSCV
A further data set deals with Liver microsome. Briefly: Intrinsic clearance in human liver microsomes at 2.5 uM. It is filed as ADME. On the technique in general: Liver microsomes are a subcellular fraction often used to study metabolism.
For data set [6], the target named is 5-hydroxytryptamine receptor 2A (Rattus norvegicus, UniProt P14842). Briefly: Displacement of [3H]ketanserin from 5HT2A in Wistar rat frontal cortex membranes after 1 hr by liquid scintillation spectrometry. It is filed as cell membranes, Membrane.
Sequence of 5-hydroxytryptamine receptor 2A (Rattus norvegicus, UniProt P14842) (P14842 whole entry): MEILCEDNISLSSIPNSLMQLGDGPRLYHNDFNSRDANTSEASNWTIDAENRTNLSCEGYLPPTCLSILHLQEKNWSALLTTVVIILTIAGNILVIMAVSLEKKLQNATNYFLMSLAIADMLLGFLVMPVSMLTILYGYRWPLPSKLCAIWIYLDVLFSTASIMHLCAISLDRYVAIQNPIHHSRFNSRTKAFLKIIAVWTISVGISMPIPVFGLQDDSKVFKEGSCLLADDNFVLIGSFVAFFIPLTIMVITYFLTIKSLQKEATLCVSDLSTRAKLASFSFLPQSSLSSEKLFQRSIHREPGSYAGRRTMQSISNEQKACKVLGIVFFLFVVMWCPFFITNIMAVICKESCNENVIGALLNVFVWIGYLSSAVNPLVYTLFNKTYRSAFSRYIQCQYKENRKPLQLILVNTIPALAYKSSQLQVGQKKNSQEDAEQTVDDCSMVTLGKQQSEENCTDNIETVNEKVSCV
Data set [7] has as its target Sodium-dependent serotonin transporter (Homo sapiens, UniProt P31645). Briefly: Binding affinity to SERT (unknown origin).
Data set [8] deals with Mus musculus. The data set can be described thus: Induction of motor depression in C57BL/6J mouse assessed as total duration of immobility was measured over a period of 6 mins at 25 to 100 mg/kg, ip by tail suspension test. Particulars: in vivo, 0.1 h. Format: organism-based.
In data set [9] the target is 5-hydroxytryptamine receptor 1A (Homo sapiens) (UniProt P08908). Briefly: Displacement of [3H]-8-OH-DPAT from human 5HT1A receptor at 1 uM.
Sequence of 5-hydroxytryptamine receptor 1A (Homo sapiens) (P08908 whole entry, looked up): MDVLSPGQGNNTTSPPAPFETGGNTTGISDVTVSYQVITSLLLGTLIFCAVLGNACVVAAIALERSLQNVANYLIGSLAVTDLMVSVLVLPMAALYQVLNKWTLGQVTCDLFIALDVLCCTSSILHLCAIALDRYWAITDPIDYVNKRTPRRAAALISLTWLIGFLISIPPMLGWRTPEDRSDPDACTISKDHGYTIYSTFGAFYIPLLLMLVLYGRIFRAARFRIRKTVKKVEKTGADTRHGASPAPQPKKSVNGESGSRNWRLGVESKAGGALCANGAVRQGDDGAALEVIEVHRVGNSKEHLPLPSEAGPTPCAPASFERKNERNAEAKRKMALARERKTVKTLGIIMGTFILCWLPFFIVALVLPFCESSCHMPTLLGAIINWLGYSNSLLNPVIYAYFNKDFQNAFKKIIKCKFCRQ
Data set [10] deals with Mus musculus. Briefly: Effect on spontaneous rearing behavior in NMRI mouse at 5 to 80 mg/kg, ip. Particulars: in vivo. Format: ADME, organism-based.
In data set [11] the test system is Mus musculus. Briefly: Inhibition of mCPP-induced hypomotility in NMRI mouse assessed as reductiion in vertical hypoactivity at 40 to 80 mg/kg, ip up to 60 mins. It is filed as functional, organism-based.
In data set [12] the target is T4, 5-hydroxytryptamine receptor 2C (Homo sapiens) (UniProt P28335).
T4 sequence (whole entry): T1 sequence (P28335 whole entry)
Briefly: Antagonist activity at human 5-HT2C receptor expressed in CHO-K1 cells assessed as inhibition of 5HT-induced Ca2+ release at 10 uM by fluorometry assay. Format: functional, cell-based.

The target of data set [13] is T3, 5-hydroxytryptamine receptor 2A. The data set can be described thus: Antagonist activity at human 5-HT2A receptor expressed in CHO-K1 cells assessed as inhibition of 5HT-induced Ca2+ release at 10 uM by fluorometry assay. It is filed as functional, cell-based.
The subject of data set [14] is Mus musculus. The data set can be described thus: Inhibition of hypomotility in NMRI mouse assessed as reduction in rearing at 20 mg/kg, ip in presence of 0.1 to 1 mg/kg, sc selective 5-HT2C antagonist SB-242084. It is filed as functional, organism-based.
The target in data set [15] is 5-hydroxytryptamine receptor 2B (Homo sapiens) (UniProt P41595). Briefly: Displacement of [3H]-LSD from human 5HT2B receptor at 1 uM.
Sequence of 5-hydroxytryptamine receptor 2B (Homo sapiens) (P41595 whole entry): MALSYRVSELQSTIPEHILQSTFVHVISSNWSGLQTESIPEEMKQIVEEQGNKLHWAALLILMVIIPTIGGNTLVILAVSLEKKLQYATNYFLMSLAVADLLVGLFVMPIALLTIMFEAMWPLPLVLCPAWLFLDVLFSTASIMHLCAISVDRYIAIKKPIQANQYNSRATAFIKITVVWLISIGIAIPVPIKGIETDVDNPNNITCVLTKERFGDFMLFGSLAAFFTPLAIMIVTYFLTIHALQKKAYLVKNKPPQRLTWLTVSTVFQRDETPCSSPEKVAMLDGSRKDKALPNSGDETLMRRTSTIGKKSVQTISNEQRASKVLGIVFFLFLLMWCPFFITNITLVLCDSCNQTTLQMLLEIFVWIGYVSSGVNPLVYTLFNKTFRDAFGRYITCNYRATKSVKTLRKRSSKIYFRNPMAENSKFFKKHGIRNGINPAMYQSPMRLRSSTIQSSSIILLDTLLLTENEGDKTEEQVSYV
In data set [16] the target is Sodium-dependent serotonin transporter (Rattus norvegicus) (UniProt P31652). Briefly: Displacement of [3H]citalopram from SERT in Sprague-Dawley rat whole brain membranes at 1 uM after 1 hr by liquid scintillation spectrometry. Format: tissue-based. Particulars: Membrane.
Sequence of Sodium-dependent serotonin transporter (Rattus norvegicus) (P31652 whole entry): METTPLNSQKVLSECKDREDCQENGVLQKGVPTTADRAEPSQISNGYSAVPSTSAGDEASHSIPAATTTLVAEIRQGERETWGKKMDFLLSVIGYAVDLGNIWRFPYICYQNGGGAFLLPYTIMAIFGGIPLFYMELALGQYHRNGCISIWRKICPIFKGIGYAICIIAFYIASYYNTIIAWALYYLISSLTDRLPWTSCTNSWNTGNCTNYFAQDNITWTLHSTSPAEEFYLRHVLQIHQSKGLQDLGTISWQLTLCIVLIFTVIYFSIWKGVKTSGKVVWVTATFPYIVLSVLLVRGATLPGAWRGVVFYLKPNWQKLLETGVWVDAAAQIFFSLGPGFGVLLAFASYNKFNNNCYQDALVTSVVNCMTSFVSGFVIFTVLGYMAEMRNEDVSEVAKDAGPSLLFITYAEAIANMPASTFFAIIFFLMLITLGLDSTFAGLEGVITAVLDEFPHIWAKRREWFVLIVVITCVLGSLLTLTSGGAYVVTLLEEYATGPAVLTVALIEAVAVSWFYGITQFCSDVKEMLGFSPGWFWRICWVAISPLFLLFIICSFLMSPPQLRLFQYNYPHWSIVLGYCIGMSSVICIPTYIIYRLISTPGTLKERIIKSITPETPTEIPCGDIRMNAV
The nature of data set [17]: Efflux ratio of the compound from apical to basolateral side to basolateral to apical side in human vinblastine-treated Caco2 cells. It is filed as ADME, cell-based. Particulars: caco-2. (Caco-2 cells form a polarised layer with tight junctions and transporters.)
Data set [18] deals with Mus musculus. The data set can be described thus: Inhibition of mCPP-induced hypomotility in ip dosed NMRI mouse assessed as rearing count up to 60 mins. Format: functional. Particulars: 1 h.
In data set [19] the test system is Mus musculus. The data set can be described thus: Inhibition of mCPP-induced hypomotility in NMRI mouse assessed as reductiion in vertical hypoactivity at 20 to 40 mg/kg, ip up to 60 mins. It is filed as functional, organism-based.
The test system of data set [20] is Mus musculus. Briefly: Potentiation of mCPP-induced hypomotility in NMRI mouse at 20 to 40 mg/kg, ip up to 60 mins. Format: ADME, organism-based. Particulars: in vivo, 1 h.
Data set [21] can be described thus: Apparent permeability of the compound from apical to basolateral side in human vinblastine-treated Caco2 cells. It is filed as ADME, cell-based. Particulars: caco-2.
Data set [22] deals with Mus musculus. Briefly: Induction of motor depression in C57BL/6J mouse assessed as total duration of immobility was measured over a period of 6 mins at 20 to 80 mg/kg, ip by tail suspension test. It is filed as organism-based. Particulars: in vivo, 0.1 h.

SMILES strings stand for the structures. Active and inactive are the calls of the source. The rule behind the calls is not given here.

The values below come from ChEMBL document CHEMBL3751661, “The influence of 5-HT(2A) activity on a 5-HT(2C) specific in vivo assay used for early identification of multiple acting SERT and 5-HT(2C) receptor ligands” (Bioorg Med Chem Lett, 2016).

Sequence of Sodium-dependent serotonin transporter (Rattus norvegicus, UniProt P31652) (P31652 whole entry): as above
Sequence of Sodium-dependent serotonin transporter (Homo sapiens, UniProt P31645) (P31645 whole entry): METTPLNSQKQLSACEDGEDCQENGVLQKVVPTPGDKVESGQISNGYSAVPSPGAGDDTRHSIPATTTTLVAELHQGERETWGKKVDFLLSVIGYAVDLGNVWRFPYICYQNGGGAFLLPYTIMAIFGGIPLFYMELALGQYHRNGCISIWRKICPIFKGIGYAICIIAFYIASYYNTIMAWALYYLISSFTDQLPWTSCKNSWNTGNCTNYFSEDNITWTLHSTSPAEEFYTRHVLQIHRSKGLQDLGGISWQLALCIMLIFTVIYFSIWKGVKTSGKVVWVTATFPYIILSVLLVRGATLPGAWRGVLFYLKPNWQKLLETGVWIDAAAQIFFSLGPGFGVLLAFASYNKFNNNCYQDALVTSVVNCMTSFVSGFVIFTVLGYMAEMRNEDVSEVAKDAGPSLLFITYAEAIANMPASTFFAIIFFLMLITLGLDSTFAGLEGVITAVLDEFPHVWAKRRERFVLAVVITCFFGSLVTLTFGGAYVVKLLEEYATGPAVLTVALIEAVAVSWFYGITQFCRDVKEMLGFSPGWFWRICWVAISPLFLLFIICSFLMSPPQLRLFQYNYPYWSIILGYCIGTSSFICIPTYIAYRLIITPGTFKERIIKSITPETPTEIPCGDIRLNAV

As to `CN(C)CCN(Cc1ccccc1)S(=O)(=O)c1ccc(I)cc1`, the Ki (commonly a measure of affinity in units of concentration, obtained from inhibition or displacement) is 20.4 nM in [1]; 8 nM in [2]; 11.6 nM in [3]; 1.8 nM in data set [5]; 3 nM in [6]; 30.4 nM in data set [7]. Besides, the CLH in data set [4] is 14.19 mL/min/g; with Liver microsome, 1.36 mL/min/g.

For the molecule `Cc1cc2c(cc1Cl)N(C(=O)Nc1ccc(Oc3cccnc3C)nc1)CC2` [SB-242084], the Ki in [1] came out at 1770 nM; in data set [3], 0.16 nM; in data set [6], 274 nM.

For the molecule `CN(C)CCN(Cc1ccccc1)S(=O)(=O)c1ccc(N2CCN(c3cccc(Cl)c3)CC2)cc1`, the Activity entry in the data set on Mus musculus [8] and in the data set on Mus musculus [10] was “Toxic” in each case. Further, the results for the inhibition in data set [9] and in [15] were -7% and 82%, respectively. The values for the Ki in [1], in data set [3] and in data set [6] were 29.7 nM, 8.1 nM and 9.9 nM, respectively. Also, the result in the data set on Mus musculus [11] and in the data set with Mus musculus [14] was inactive. For the same molecule, the inhibition entry in data set [12] and in [13] was “Active” throughout. Moreover, the results for the CLH (in data set [4]; in the data set with Liver microsome) were 1.57 mL/min/g and 1.43 mL/min/g, respectively.

With `Cc1cc2c(cc1Cl)N(C(=O)Nc1ccc(S(=O)(=O)N(CCN(C)C)Cc3ccccc3)cc1)CC2`, in [3], the Ki was 43.5 nM. In addition, the inhibition – broadly, the drop in the measured response relative to a control, in per cent – in data set [16] was 11%.

As for `CCn1ccc2cc(NC(=O)Nc3ccc(S(=O)(=O)N(CCN(C)C)Cc4ccccc4)cc3)ccc21`, the Ki in data set [1] was 65.6 nM; in data set [3], 26.5 nM.

Take `Cc1ccc(NC(=O)Nc2ccc(S(=O)(=O)N(CCN(C)C)Cc3ccccc3)cc2)cc1Cl`: the figures for the Ki in data set [1] and in data set [3] were 209 nM and 4.5 nM, respectively.

With `CN(C)CCN(Cc1ccccc1)S(=O)(=O)c1ccc(NC(=O)N2CCN(c3cccc(Cl)c3)CC2)cc1`, the figures for the Ki in data set [1] and in [3] were 36.8 nM and 95.6 nM, respectively.

In turn, `Cc1ccc(NC(=O)Nc2ccc(OC(CCN(C)C)c3ccccc3)cc2)cc1Cl` (stereo unspecified) came in with a Ki in data set [3] of 3 nM.

Turning to `CN(C)CCC(Oc1ccc(NC(=O)Nc2ccc3c(ccn3C)c2)cc1)c1ccccc1` (stereo unspecified), the Ratio in data set [17] worked out at 5.3. In addition, the CLH in data set [4] was determined as 3.25 mL/min/g; in the data set on Liver microsome, 2.66 mL/min/g. Besides, affinity in [6] was put at a Ki of 239 nM.

With `CN(C)CCN(Cc1ccccc1)S(=O)(=O)c1ccc(C(=O)N2CCN(c3cccc(Cl)c3)CC2)cc1`, the results for the Ki in data set [1] and in data set [3] were 110 nM and 477 nM, respectively.

Regarding `Cc1cc2c(cc1Cl)N(C(=O)Nc1ccc(OC(CCN(C)C)c3ccccc3)cc1)CC2` (stereo unspecified), the Ki in [1] turned out to be 65.5 nM; in data set [3], 0.6 nM; in data set [6], 138 nM. The CLH in data set [4] was 0.9 mL/min/g; in the data set with Liver microsome, 0.06 mL/min/g. For the same molecule, in the data set with Mus musculus [18], the ED50 (as a rule, the dose that gives a 50% effect, or the effect in half of the subjects) came to 17.9 mg/kg.

Consider `COc1ccc(NC(=O)Nc2ccc(S(=O)(=O)N(CCN(C)C)Cc3ccccc3)cc2)cc1Cl`, for which the Ki in data set [1] was determined as 93 nM; in [3], 16.3 nM.

In the case of `Clc1cccc(N2CCNCC2)c1` [CHLOROPHENYLPIPERAZINE], in data set [7], the Ki amounted to 271 nM.

`CN(C)CCN(Cc1ccccc1)S(=O)(=O)c1cccc(N2CCN(c3cccc(Cl)c3)CC2)c1`: the results for the Ki in data set [1] and in data set [3] were 509 nM and 6.1 nM, respectively.

For the molecule `COc1ccc(NC(=O)Nc2ccc(OC(CCN(C)C)c3ccccc3)cc2)cc1Cl` (stereo unspecified), the figures for the inhibition in [9] and in data set [15] were -4% and 87%, respectively. Further, the Ratio in [17] stood at 2.2. In addition, the CLH came out at 1.25 mL/min/g in data set [4] and 0.68 mL/min/g with Liver microsome. The ED50 in the data set with Mus musculus [18] turned out to be 13.5 mg/kg. Further, the Ki in data set [6] worked out at 233 nM.

Take `CN(C)CCN(Cc1ccccc1)S(=O)(=O)c1ccc(NC(=O)Nc2ccc3c(ccn3C)c2)cc1`: the inhibition in data set [9] was -4%; in [15], 86%. Besides, the values for the Ki in data set [1], in data set [3] and in data set [6] were 26.2 nM, 14.5 nM and 58.4 nM, respectively. Moreover, the outcome in the data set with Mus musculus [19] was inactive. Further, in data set [17], the Ratio worked out at 2.2. The Activity result with Mus musculus [20] and in the data set with Mus musculus [22] was “Toxic” throughout. Besides, the inhibition result in [12] and in data set [13] was “Active” in each case. Besides, the CLH in [4] stood at 1.07 mL/min/g; in the data set on Liver microsome, 3.94 mL/min/g. In addition, the Papp A→B – broadly, how fast a substance crosses the layer from the apical side – in data set [21] was 8.6 ×10⁻⁶ cm/s.
